Measured values taken from patent US8309745B2, “Epigallocatechin dimers or trimers having lipase inhibitory activity and/or antioxidant activity” (Suntory Holdings Limited, priority 2004, dated 2012).

Legend:
swine pancreatic lipase = target: T1, swine pancreatic lipase (Sus scrofa, UniProt P00591); assay: Measurement of lipase inhibitory activity (4-UMO fluorescence assay); assay type: biochemical; conditions: for IC50: swine pancreatic lipase, 4-UMO substrate, pH 8.0, 30-minute reaction, read-out: Lipase Inhibitory Activities of Various Polyphenols IC50; for lipase inhibitory activity compared with EGCG: in words
T1 construct: purchased Sigma
T1 sequence (P00591 1-450): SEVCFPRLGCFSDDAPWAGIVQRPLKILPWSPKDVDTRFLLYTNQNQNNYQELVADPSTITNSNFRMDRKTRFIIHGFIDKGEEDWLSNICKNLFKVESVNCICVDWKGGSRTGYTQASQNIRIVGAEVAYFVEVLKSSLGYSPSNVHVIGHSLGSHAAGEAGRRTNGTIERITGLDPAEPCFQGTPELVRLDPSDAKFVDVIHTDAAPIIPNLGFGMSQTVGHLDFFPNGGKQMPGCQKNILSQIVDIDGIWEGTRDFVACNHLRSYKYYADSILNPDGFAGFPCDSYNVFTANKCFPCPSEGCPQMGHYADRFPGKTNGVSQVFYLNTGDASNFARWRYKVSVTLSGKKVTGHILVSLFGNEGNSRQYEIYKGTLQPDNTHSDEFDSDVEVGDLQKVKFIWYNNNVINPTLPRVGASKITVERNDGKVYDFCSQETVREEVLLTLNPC
Excerpt: Lipase inhibitory activity can be measured by any one of the lipase activity assays that are described in the prior applications mentioned in the Background Art. As for inhibitory activity against pancreatic lipase, an oleic ester of fluorescent 4-methylumbelliferone may be used as a substrate to measure the fluorescence from 4-methylumbelliferone that is formed by reaction with the lipase. The amount of a sample that provides 50% inhibition of lipase activity (IC50) may be substituted to express lipase inhibitory activity in accordance with the usual method.
For lipase activity measurement, an oleic ester of fluorescent 4-methylumbelliferone (4-UMO) was used as a substrate and the fluorescence from 4-methylumbelliferone formed by enzyme reaction was measured.
The buffer used in the measurement was 13 mM tris-HCl (pH 8.0) containing 150 mM NaCl and 1.36 mM CaCl2. The substrate 4-UMO (product of Sigma-Aldrich Co.) was prepared as 0.1 M solution in DMSO and then diluted 1,000-fold with the buffer. The lipase subjected to enzyme measurement was swine pancreatic lipase (product of Sigma) that had been diluted to a concentration of 400 U/ml with the buffer.
To start the enzyme reaction, 50 μl of buffered 4-UMO solution and 25 μl of distilled water (or an aqueous solution of sample) were loaded and mixed on a 96-well microplate and 25 μl of the buffered lipase solution was then added. After 30-minute reaction, 100 μl of 0.1 M citrate buffered solution (pH 4.2) was added to quench the reaction and the fluorescence from 4-methylumbelliferone (excitation wavelength: 355 nm; fluorescence wavelength: 460 nm), which was generated by the reaction, was measured with a fluorescence plate reader (Fluoroskan Asent CF: product of Labsystems).
The inhibitory activity of the test sample was determined as its amount that would provide 50% inhibition of lipase activity (IC50 in μl) compared to the activity of the control (distilled water).
The lipase inhibitory activities of six compounds (dimers of OHBFs and their trimer), as well as epigallocatechin gallate (EGCG) were measured in accordance with Example 1 and the results are shown in Table 1.

[1] = Superoxide anion radical scavenging activity (hypoxanthine-xanthine oxidase reaction, ESR with DMPO); conditions: O2- generated by hypoxanthine-xanthine oxidase, DMPO trapping agent
Description: The superoxide anion radical scavenging activity was measured by the method to be described in Example 5. Briefly, O2^− was generated by means of hypoxanthine-xanthine oxidase reaction and 5,5-dimethyl-1-pyrrolin-N-oxide was used as a trapping agent to perform measurement by ESR. Measurements were conducted in the presence or absence of compounds of the present invention and the results were expressed as IC50 or the amount of a sample that provided 50% suppression of O2^− generation.
Evaluation was made of the activity for scavenging superoxide anion radicals generated by hipoxanthine-xanthine oxidase reaction, a kind of active oxygen.
After preparing (1) 2 mM hypoxanthine solution (dissolved in 0.1 M phosphate buffered solution at pH 7.4) and (2) 5.5 mM diethylenetriamine-pentaacetic acid (dissolved in 0.1 M phosphate buffered solution at pH 7.4), 5.0 ml of the solution (1), 3.5 ml of the solution (2), and 1.5 ml of 5,5-dimethyl-1-pyrrolin-N-oxide (DMPO, product of LABOTECH) were mixed to make reagent 1. A 50-μl portion of reagent 1 was put in a 1.5-ml microtube and incubated at 37° C. for 4 minutes. To the incubated reagent 1, a methanol solution of the sample was added in an amount of 20 μl and then 50 μl of xanthine oxidase (0.4 units/ml) was added, followed by stirring for 10 seconds. The reaction mixture was injected into a hematocrit tube, which was set in an ESR apparatus and sweeping in a magnetic field was started 60 seconds after addition of xanthine oxidase. The conditions of ESR measurement were as follows: Power, 4 mW; C. Field, 335.5 mT, SwWid (±), 5 mT; SwTime, 1 min; ModWid, 0.1 mT; Amp, 160; TimeC, 0.1 sec; Temperature, 20° C.
Among the ESR signals from DMPO-OOH, the signal of the lowest field strength was compared in height to the internal standard Mn^2+ signal and the ratio (S/M) was assumed to represent the amount of O2^− and the O2^− scavenging activity was calculated by the following formula: O2^− scavenging activity(%)=100−{100×(S/M in the presence of the sample)/(S/M in the absence of the sample)} Results: […]

SMILES	IC50 (swine pancreatic lipase) [nM]	IC50 [1] [nM]	lipase inhibitory activity compared with EGCG (swine pancreatic lipase)
Oc1cc([C@H]2Oc3cc(O)c(Cc4c(O)cc(O)c5c4O[C@H](c4cc(O)c(O)c(O)c4)[C@H](O)C5)c(O)c3C[C@H]2O)cc(O)c1O [Didesgalloyl oolong homobisflavan B (6), didesgalloyl oolong homobisflavan B]	2080	–	–
O=C(O[C@@H]1Cc2c(O)cc(O)cc2O[C@@H]1c1cc(O)c(O)c(O)c1)c1cc(O)c(O)c(O)c1 [Epigallocathechin 3-O-gallate (7), (−)-epigallocatechin-3-O-gallate, reference compound]	–	14000	–
O=C(O[C@@H]1Cc2c(O)cc(O)c(Cc3c(O)cc(O)c4c3O[C@H](c3cc(O)c(O)c(O)c3)[C@H](OC(=O)c3cc(O)c(O)c(O)c3)C4)c2O[C@@H]1c1cc(O)c(O)c(O)c1)c1cc(O)c(O)c(O)c1 [Oolong homobisflavan A (1), oolong homobisflavan A]	49	–	–
O=C(O[C@@H]1Cc2c(cc(O)c(Cc3c(O)cc(O)c4c3O[C@H](c3cc(O)c(O)c(O)c3)[C@H](OC(=O)c3cc(O)c(O)c(O)c3)C4)c2O)O[C@@H]1c1cc(O)c(O)c(O)c1)c1cc(O)c(O)c(O)c1 [Oolong homobisflavan B (2), oolong homobisflavan B]	108	–	–
O=C(O[C@@H]1Cc2c(cc(O)c(Cc3c(O)cc4c(c3O)C[C@@H](OC(=O)c3cc(O)c(O)c(O)c3)[C@@H](c3cc(O)c(O)c(O)c3)O4)c2O)O[C@@H]1c1cc(O)c(O)c(O)c1)c1cc(O)c(O)c(O)c1 [Oolong homobisflavan C (3), oolong homobisflavan C]	97	6200	potent lipase inhibitory activity compared with EGCG
O=C(O[C@@H]1Cc2c(O)cc(O)c(Cc3c(O)c(Cc4c(O)cc(O)c5c4O[C@H](c4cc(O)c(O)c(O)c4)[C@H](OC(=O)c4cc(O)c(O)c(O)c4)C5)c4c(c3O)C[C@@H](OC(=O)c3cc(O)c(O)c(O)c3)[C@@H](c3cc(O)c(O)c(O)c3)O4)c2O[C@@H]1c1cc(O)c(O)c(O)c1)c1cc(O)c(O)c(O)c1 [Trimer (4)]	129	10100	potent lipase inhibitory activity compared with EGCG
O=C(O[C@@H]1Cc2c(O)cc(O)c(Cc3c(O)cc(O)c4c3O[C@H](c3cc(O)c(O)c(O)c3)[C@H](O)C4)c2O[C@@H]1c1cc(O)c(O)c(O)c1)c1cc(O)c(O)c(O)c1 [monodesgalloyl oolong homobisflavan A]	271	–	–
